Consider eleven molecules from the supplement of paper PMC11451515.

Test in all cases: AUC of viability dose-response curve (% viability x log10 dose units); higher = less sensitive
What all share (conditions): 48 h

The subject of one experiment is NOMO1. In outline: (§1)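 Medium-adapted leukemia cells in 1536-well plates, at 500 or 1000 cells/well, were incubated for 48 h at 37°C with library compounds in DMSO at 11 threefold doses from 47 μM to 0.79 nM. CellTiter-Glo One luminescence normalised per plate to DMSO and cell-free wells was fitted with a four-parameter log-logistic model over log10 doses. Area under the curve was integrated from this fit by trapezoidal rule, with curves beyond full viability scaled and failed quality-control curves removed.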

In a further experiment the test system is P12-Ichikawa. In outline: as §1
The next experiment deals with SEM cells. An outline of the steps:
as §1

The mark [1] stands for this setting: RPMI 5 mM glucose + 10% dialyzed FBS.

With `CN1[C@@H]2CC[C@H]1CC(OC(=O)c1c[nH]c3ccccc13)C2` (stereo not given in full), the “AUC of viability dose-response curve” value in the experiment with NOMO1 (HPLM + 10% dialyzed FBS) worked out at 436; with NOMO1 (RPMI 5 mM glucose + 10% FBS) it was 459; with NOMO1 (setting [1]), 444; in the experiment with P12-Ichikawa (HPLM + 10% dialyzed FBS), 463; in the experiment on P12-Ichikawa (RPMI 5 mM glucose + 10% FBS) it was 468; in the experiment with P12-Ichikawa (setting [1]), 466.
Take `CN\1C(=O)/C(=C(\N=C1N2CCCC[S+]2([O-])=O)C(=O)NCC3=CC=C(F)C=C3)O`: the “AUC of viability dose-response curve” value in the experiment on SEM cells (HPLM + 10% dialyzed FBS) was 471; in the experiment on SEM cells (RPMI 5 mM glucose + 10% FBS), 458; in the experiment with SEM cells (setting [1]), 466; in the experiment with NOMO1 (HPLM + 10% dialyzed FBS), 441; in the experiment on NOMO1 (RPMI 5 mM glucose + 10% FBS), 475; in the experiment with NOMO1 (setting [1]) it was 451. The “AUC of viability dose-response curve” value in the experiment with P12-Ichikawa (HPLM + 10% dialyzed FBS) came out at 444; in the experiment on P12-Ichikawa (RPMI 5 mM glucose + 10% FBS), 462; in the experiment with P12-Ichikawa (setting [1]), 459.
With `COc1ccc(Cc2ccc(NC(N)=O)cc2)cc1-c1cccc(Cl)c1`, the “AUC of viability dose-response curve” value in the experiment on SEM cells (HPLM + 10% dialyzed FBS) amounted to 458; in the experiment with SEM cells (RPMI 5 mM glucose + 10% FBS), 465; with SEM cells (setting [1]) it was 469; with NOMO1 (HPLM + 10% dialyzed FBS), 472; in the experiment with NOMO1 (RPMI 5 mM glucose + 10% FBS) it was 471; with NOMO1 (setting [1]), 476. The “AUC of viability dose-response curve” value in the experiment with P12-Ichikawa (HPLM + 10% dialyzed FBS) was determined as 467; in the experiment with P12-Ichikawa (RPMI 5 mM glucose + 10% FBS), 465; with P12-Ichikawa (setting [1]), 464.
`C[C@]12C[C@H](O)[C@H]3[C@@H](CC\C4=C\C(=O)\C=C/[C@]34C)[C@@H]1CC[C@]2(O)C(=O)CO`: the “AUC of viability dose-response curve” value in the experiment on SEM cells (HPLM + 10% dialyzed FBS) stood at 389; in the experiment with SEM cells (RPMI 5 mM glucose + 10% FBS), 380; with SEM cells (setting [1]) it was 359; in the experiment with NOMO1 (HPLM + 10% dialyzed FBS), 446; with NOMO1 (RPMI 5 mM glucose + 10% FBS), 456; in the experiment on NOMO1 (setting [1]) it was 449. For the same molecule, the “AUC of viability dose-response curve” value in the experiment with P12-Ichikawa (HPLM + 10% dialyzed FBS) was found to be 372; in the experiment on P12-Ichikawa (RPMI 5 mM glucose + 10% FBS), 353; in the experiment with P12-Ichikawa (setting [1]), 349.
`NC[C@H]1CC[C@H](C(=O)O)CC1`: the “AUC of viability dose-response curve” value came out at 443 with SEM cells (HPLM + 10% dialyzed FBS); 456 with SEM cells (RPMI 5 mM glucose + 10% FBS); 456 in the experiment on SEM cells (setting [1]); 455 in the experiment on NOMO1 (HPLM + 10% dialyzed FBS); 475 in the experiment on NOMO1 (RPMI 5 mM glucose + 10% FBS); 448 in the experiment with NOMO1 (setting [1]).
Take `CN(c1ncccc1CNc1nc(Nc2ccc3c(c2)CC(=O)N3)ncc1C(F)(F)F)[S+](C)(=O)[O-]`: the “AUC of viability dose-response curve” value in the experiment on SEM cells (HPLM + 10% dialyzed FBS) worked out at 362; in the experiment on SEM cells (RPMI 5 mM glucose + 10% FBS) it was 342; in the experiment on SEM cells (setting [1]), 321; with NOMO1 (HPLM + 10% dialyzed FBS), 451; with NOMO1 (RPMI 5 mM glucose + 10% FBS) it was 448; in the experiment with NOMO1 (setting [1]) it was 446. Besides, the “AUC of viability dose-response curve” value was determined as 462 in the experiment with P12-Ichikawa (HPLM + 10% dialyzed FBS), 447 in the experiment on P12-Ichikawa (RPMI 5 mM glucose + 10% FBS) and 459 in the experiment on P12-Ichikawa (setting [1]).
As for `CC(C)n1c(/C=C/[C@H](O)C[C@H](O)CC(=O)O)c(-c2ccc(F)cc2)c2ccccc21`, the “AUC of viability dose-response curve” value is 430 in the experiment on SEM cells (HPLM + 10% dialyzed FBS); 426 with SEM cells (RPMI 5 mM glucose + 10% FBS); 441 in the experiment on SEM cells (setting [1]); 428 with NOMO1 (HPLM + 10% dialyzed FBS); 457 in the experiment with NOMO1 (RPMI 5 mM glucose + 10% FBS); 448 in the experiment on NOMO1 (setting [1]). Besides, the entries for the “AUC of viability dose-response curve” value in the experiment on P12-Ichikawa (HPLM + 10% dialyzed FBS), in the experiment on P12-Ichikawa (RPMI 5 mM glucose + 10% FBS) and in the experiment on P12-Ichikawa (setting [1]) were 381, 371 and 355, respectively.
As for `COc1cc2c(cc1OC)C1CC(=O)C(CC(C)C)CN1CC2` (stereo not given), the “AUC of viability dose-response curve” value was found to be 471 in the experiment with SEM cells (HPLM + 10% dialyzed FBS); 476 in the experiment on SEM cells (RPMI 5 mM glucose + 10% FBS); 459 in the experiment with SEM cells (setting [1]); 448 with NOMO1 (HPLM + 10% dialyzed FBS); 470 with NOMO1 (RPMI 5 mM glucose + 10% FBS); 469 with NOMO1 (setting [1]). Further, the “AUC of viability dose-response curve” value was 459 with P12-Ichikawa (HPLM + 10% dialyzed FBS), 459 in the experiment with P12-Ichikawa (RPMI 5 mM glucose + 10% FBS) and 466 with P12-Ichikawa (setting [1]).
Take `C[C@H](O)[C@H]1[C@@H]2[C@H](C)C(=C(\N2C1=O)C(O)=O)/S[C@@H]3CN[C@H](CN[S+](N)([O-])=O)C3`: the “AUC of viability dose-response curve” value in the experiment with SEM cells (HPLM + 10% dialyzed FBS) was 443; with SEM cells (RPMI 5 mM glucose + 10% FBS), 453; with SEM cells (setting [1]) it was 420; in the experiment on NOMO1 (HPLM + 10% dialyzed FBS), 439; in the experiment on NOMO1 (RPMI 5 mM glucose + 10% FBS), 443; with NOMO1 (setting [1]), 452. Also, the “AUC of viability dose-response curve” value with P12-Ichikawa (HPLM + 10% dialyzed FBS) came out at 465; with P12-Ichikawa (RPMI 5 mM glucose + 10% FBS), 455; in the experiment with P12-Ichikawa (setting [1]), 447.
On to `C[C@]12CC[C@@H]3c4ccc(OC(=O)N(CCCl)CCCl)cc4CC[C@H]3[C@@H]1CC[C@@H]2OP(=O)([O-])[O-].[Na+].[Na+]`, for which the “AUC of viability dose-response curve” value turned out to be 429 in the experiment on SEM cells (HPLM + 10% dialyzed FBS); 397 in the experiment with SEM cells (RPMI 5 mM glucose + 10% FBS); 382 with SEM cells (setting [1]); 406 in the experiment with NOMO1 (HPLM + 10% dialyzed FBS); 460 in the experiment on NOMO1 (RPMI 5 mM glucose + 10% FBS); 455 with NOMO1 (setting [1]).
`ClC1=C(N\C2=N\CCN2)C3=NSN=C3C=C1`: the “AUC of viability dose-response curve” value in the experiment on SEM cells (HPLM + 10% dialyzed FBS) turned out to be 419; with SEM cells (RPMI 5 mM glucose + 10% FBS), 427; in the experiment with SEM cells (setting [1]), 432; in the experiment on NOMO1 (HPLM + 10% dialyzed FBS), 434; in the experiment with NOMO1 (RPMI 5 mM glucose + 10% FBS) it was 440; with NOMO1 (setting [1]), 428. Moreover, the “AUC of viability dose-response curve” value was 461 with P12-Ichikawa (HPLM + 10% dialyzed FBS), 465 in the experiment on P12-Ichikawa (RPMI 5 mM glucose + 10% FBS) and 455 with P12-Ichikawa (setting [1]).
